Drawing on ChEMBL document CHEMBL3611970, “Synthesis and evaluation of isatin-β-thiosemicarbazones as novel agents against antibiotic-resistant Gram-positive bacterial species” (2015), this text covers MIC for 6 compounds.

The MIC is the lowest concentration found to suppress growth.

Converted amounts (≈) assume the structure as drawn.

What all share (format): functional
Test [1] relates to Staphylococcus aureus. Description: Antimicrobial activity against methicillin-resistant Staphylococcus aureus 8-24 clinical isolate after 16 hrs by broth microdilution method. The conditions noted are these: 8-24, 16 h.
Test [2] concerns Staphylococcus aureus. In words: Antimicrobial activity against methicillin-resistant Staphylococcus aureus 6-42 clinical isolate after 16 hrs by broth microdilution method. The settings on record: 6-42, 16 h. For orientation: Dilution methods test growth across graded concentrations, often in twofold steps.
The test system of another test is Pseudomonas aeruginosa. Description: Antimicrobial activity against Pseudomonas aeruginosa PAO1 after 16 hrs by broth microdilution method. The settings on record: PAO1, 16 h.
Test [3] concerns Staphylococcus aureus. Description: Antimicrobial activity against methicillin-resistant Staphylococcus aureus 309-7 clinical isolate after 16 hrs by broth microdilution method. The conditions noted are these: 309-7, 16 h.
In test [4] the test system is Staphylococcus aureus. Description: Antimicrobial activity against methicillin-resistant Staphylococcus aureus 8-21 clinical isolate after 16 hrs by broth microdilution method. The settings on record: 8-21, 16 h.
A further test relates to Klebsiella pneumoniae. In words: Antimicrobial activity against Klebsiella pneumoniae KP-249 clinical isolate after 16 hrs by broth microdilution method. The conditions noted are these: KP-249, 16 h.
Test [5] relates to Staphylococcus aureus. In words: Antimicrobial activity against methicillin-resistant Staphylococcus aureus 309-1 clinical isolate after 16 hrs by broth microdilution method. The conditions noted are these: 309-1, 16 h.
The test system of test [6] is Staphylococcus aureus. Description: Antimicrobial activity against methicillin-resistant Staphylococcus aureus 309-3 clinical isolate after 16 hrs by broth microdilution method. The conditions noted are these: 309-3, 16 h.
Test [7] has as its system Staphylococcus aureus. In words: Antimicrobial activity against methicillin-resistant Staphylococcus aureus 309-8 clinical isolate after 16 hrs by broth microdilution method. The settings on record: 309-8, 16 h.
The test system of test [8] is Staphylococcus aureus. In words: Antimicrobial activity against methicillin-resistant Staphylococcus aureus 309-6 clinical isolate after 16 hrs by broth microdilution method. The settings on record: 309-6, 16 h.
For test [9], the system named is Staphylococcus aureus. In words: Antimicrobial activity against methicillin-resistant Staphylococcus aureus Chaoyang clinical isolate after 16 hrs by broth microdilution method.
The next test relates to Bacillus spizizenii. Description: Antimicrobial activity against Bacillus subtilis ATCC 6633 after 16 hrs by broth microdilution method. The conditions noted are these: ATCC 6633, 16 h.
Test [10] has as its system Enterococcus faecalis. Description: Antimicrobial activity against Enterococcus faecalis VRE-309 after 16 hrs by broth microdilution method. The settings on record: VRE-309, 16 h.
The subject of test [11] is Staphylococcus aureus. Description: Antimicrobial activity against methicillin-resistant Staphylococcus aureus 6281 clinical isolate after 16 hrs by broth microdilution method. The settings on record: Staphylococcus aureus, 6281, 16 h.
Test [12] deals with Enterococcus faecalis. Description: Antimicrobial activity against vancomycin-susceptible Enterococcus faecalis after 16 hrs by broth microdilution method.
Test [13] concerns Staphylococcus aureus. In words: Antimicrobial activity against Staphylococcus aureus ATCC 6538 after 16 hrs by broth microdilution method. The conditions noted are these: ATCC 6538, 16 h.
Test [14] deals with Staphylococcus aureus. In words: Antimicrobial activity against methicillin-resistant Staphylococcus aureus 309-4 clinical isolate after 16 hrs by broth microdilution method. The settings on record: 309-4, 16 h.

On to `COc1ccc(NC(=S)N/N=C2\C(=O)Nc3c(Cl)cccc32)cc1`, for which the MIC is 3.12 µg/mL (≈ 8.65 µM) against Staphylococcus aureus [1]; 1.56 µg/mL (≈ 4.32 µM) against Staphylococcus aureus [2]; over 100 µg/mL in the test with Pseudomonas aeruginosa; 1.56 µg/mL (≈ 4.32 µM) against Staphylococcus aureus [3]; 3.12 µg/mL (≈ 8.65 µM) in the test on Staphylococcus aureus [4]; over 100 µg/mL with Klebsiella pneumoniae. Besides, the minimal inhibitory concentration (MIC) was 3.12 µg/mL (≈ 8.65 µM) in the test with Staphylococcus aureus [5]; 3.12 µg/mL (≈ 8.65 µM) in the test with Staphylococcus aureus [6]; 3.12 µg/mL (≈ 8.65 µM) against Staphylococcus aureus [7]; 6.25 µg/mL (≈ 17.3 µM) against Staphylococcus aureus [8]; 1.56 µg/mL (≈ 4.32 µM) in the test on Staphylococcus aureus [9]; at most 0.78 µg/mL against Bacillus spizizenii. Also, the MIC with Enterococcus faecalis [10] was over 100 µg/mL; with Staphylococcus aureus [11] it was 6.25 µg/mL (≈ 17.3 µM); against Enterococcus faecalis [12], over 100 µg/mL; in the test on Staphylococcus aureus [13] it was 6.25 µg/mL (≈ 17.3 µM); against Staphylococcus aureus [14], 1.56 µg/mL (≈ 4.32 µM).

In the case of `COc1ccccc1NC(=S)N/N=C1\C(=O)Nc2c(Br)cccc21`, the minimal inhibitory concentration (MIC) in the test on Staphylococcus aureus [1], against Staphylococcus aureus [2], in the test on Pseudomonas aeruginosa, in the test with Staphylococcus aureus [3], in the test on Staphylococcus aureus [4] and against Klebsiella pneumoniae was over 100 µg/mL each time. The MIC was over 100 µg/mL against Staphylococcus aureus [5]; over 100 µg/mL against Staphylococcus aureus [6]; over 100 µg/mL against Staphylococcus aureus [7]; over 100 µg/mL with Staphylococcus aureus [8]; 25 µg/mL (≈ 61.7 µM) in the test with Staphylococcus aureus [9]; 25 µg/mL (≈ 61.7 µM) against Bacillus spizizenii. The MIC against Enterococcus faecalis [10], with Staphylococcus aureus [11], against Enterococcus faecalis [12], against Staphylococcus aureus [13] and against Staphylococcus aureus [14] was over 100 µg/mL throughout.

Take `O=C1Nc2c(Br)cccc2/C1=N/NC(=S)Nc1cccc(F)c1`: the MIC was 0.78 µg/mL (≈ 1.98 µM) with Staphylococcus aureus [1]; 0.78 µg/mL (≈ 1.98 µM) with Staphylococcus aureus [2]; over 100 µg/mL in the test on Pseudomonas aeruginosa; 0.39 µg/mL (≈ 0.992 µM) against Staphylococcus aureus [3]; 0.78 µg/mL (≈ 1.98 µM) in the test on Staphylococcus aureus [4]; over 100 µg/mL in the test on Klebsiella pneumoniae. Besides, the MIC is 0.78 µg/mL (≈ 1.98 µM) in the test on Staphylococcus aureus [5]; 0.78 µg/mL (≈ 1.98 µM) in the test on Staphylococcus aureus [6]; 0.78 µg/mL (≈ 1.98 µM) in the test on Staphylococcus aureus [7]; 1.56 µg/mL (≈ 3.97 µM) against Staphylococcus aureus [8]; 0.39 µg/mL (≈ 0.992 µM) with Staphylococcus aureus [9]; at most 0.78 µg/mL against Bacillus spizizenii. Moreover, the MIC was 1.56 µg/mL (≈ 3.97 µM) against Enterococcus faecalis [10]; 1.56 µg/mL (≈ 3.97 µM) against Staphylococcus aureus [11]; 3.12 µg/mL (≈ 7.93 µM) against Enterococcus faecalis [12]; 1.56 µg/mL (≈ 3.97 µM) with Staphylococcus aureus [13]; 0.78 µg/mL (≈ 1.98 µM) against Staphylococcus aureus [14].

As for `O=C1Nc2c(Br)cccc2/C1=N/NC(=S)Nc1cccc(Cl)c1`, the MIC against Staphylococcus aureus [1] was 1.56 µg/mL (≈ 3.81 µM); in the test with Staphylococcus aureus [2], 0.78 µg/mL (≈ 1.9 µM); against Pseudomonas aeruginosa, over 100 µg/mL; with Staphylococcus aureus [3], 0.78 µg/mL (≈ 1.9 µM); with Staphylococcus aureus [4] it was 1.56 µg/mL (≈ 3.81 µM); in the test with Klebsiella pneumoniae it was over 100 µg/mL. The MIC in the test on Staphylococcus aureus [5] was 1.56 µg/mL (≈ 3.81 µM); with Staphylococcus aureus [6] it was 1.56 µg/mL (≈ 3.81 µM); in the test on Staphylococcus aureus [7], 1.56 µg/mL (≈ 3.81 µM); in the test on Staphylococcus aureus [8], 1.56 µg/mL (≈ 3.81 µM); against Staphylococcus aureus [9], 0.39 µg/mL (≈ 0.952 µM); against Bacillus spizizenii it was at most 0.78 µg/mL. In addition, the MIC is 1.56 µg/mL (≈ 3.81 µM) with Enterococcus faecalis [10]; 1.56 µg/mL (≈ 3.81 µM) with Staphylococcus aureus [11]; 3.12 µg/mL (≈ 7.62 µM) in the test on Enterococcus faecalis [12]; 1.56 µg/mL (≈ 3.81 µM) in the test on Staphylococcus aureus [13]; 0.78 µg/mL (≈ 1.9 µM) with Staphylococcus aureus [14].

Regarding `O=C1Nc2c(Br)cccc2/C1=N/NC(=S)Nc1ccc(Br)cc1`, the MIC in the test on Staphylococcus aureus [1] was 1.56 µg/mL (≈ 3.44 µM); in the test on Staphylococcus aureus [2], 0.78 µg/mL (≈ 1.72 µM); in the test on Pseudomonas aeruginosa, over 100 µg/mL; in the test with Staphylococcus aureus [3] it was 0.78 µg/mL (≈ 1.72 µM); against Staphylococcus aureus [4] it was 1.56 µg/mL (≈ 3.44 µM); in the test with Klebsiella pneumoniae, over 100 µg/mL. For the same compound, the MIC came to 1.56 µg/mL (≈ 3.44 µM) with Staphylococcus aureus [5]; 1.56 µg/mL (≈ 3.44 µM) against Staphylococcus aureus [6]; 1.56 µg/mL (≈ 3.44 µM) in the test with Staphylococcus aureus [7]; 1.56 µg/mL (≈ 3.44 µM) against Staphylococcus aureus [8]; 0.39 µg/mL (≈ 0.859 µM) with Staphylococcus aureus [9]; 1.56 µg/mL (≈ 3.44 µM) in the test on Bacillus spizizenii. Further, the MIC with Enterococcus faecalis [10] came to 1.56 µg/mL (≈ 3.44 µM); against Staphylococcus aureus [11], 3.12 µg/mL (≈ 6.87 µM); against Enterococcus faecalis [12], 3.12 µg/mL (≈ 6.87 µM); against Staphylococcus aureus [13], 3.12 µg/mL (≈ 6.87 µM); in the test with Staphylococcus aureus [14] it was 0.78 µg/mL (≈ 1.72 µM).

With `COc1ccc(NC(=S)N/N=C2\C(=O)Nc3c(Br)cccc32)cc1`, the MIC is 1.56 µg/mL (≈ 3.85 µM) in the test on Staphylococcus aureus [1]; 0.78 µg/mL (≈ 1.92 µM) with Staphylococcus aureus [2]; over 100 µg/mL in the test with Pseudomonas aeruginosa; 0.78 µg/mL (≈ 1.92 µM) against Staphylococcus aureus [3]; 1.56 µg/mL (≈ 3.85 µM) in the test with Staphylococcus aureus [4]; over 100 µg/mL in the test with Klebsiella pneumoniae. Also, the MIC with Staphylococcus aureus [5] is 1.56 µg/mL (≈ 3.85 µM); with Staphylococcus aureus [6], 3.12 µg/mL (≈ 7.7 µM); in the test with Staphylococcus aureus [7], 1.56 µg/mL (≈ 3.85 µM); with Staphylococcus aureus [8], 6.25 µg/mL (≈ 15.4 µM); in the test on Staphylococcus aureus [9], 0.78 µg/mL (≈ 1.92 µM); against Bacillus spizizenii it was at most 0.78 µg/mL. Further, the MIC against Enterococcus faecalis [10] is over 100 µg/mL; against Staphylococcus aureus [11], 6.25 µg/mL (≈ 15.4 µM); against Enterococcus faecalis [12], over 100 µg/mL; against Staphylococcus aureus [13], 6.25 µg/mL (≈ 15.4 µM); in the test on Staphylococcus aureus [14], 1.56 µg/mL (≈ 3.85 µM).
